Experimental data reported in patent US9107909B2, “Materials and methods to enhance hematopoietic stem cells engraftment procedures” (priority 2008, dated 2015).
Values joined by “and” are separate entries in the source; they are usually repeats but may differ in a detail not shown here. Equal entries are not always repeated. “Also recorded” adds a separate entry of the source.

Tests used:
[1] = system: CXCR4 on human CD34+ UCB cells; experiment: CXCR4 surface expression by FACS after pulse exposure, human cells; type: cell-based
Text: Expression of EP receptors, CXCR4 and Survivin Replicate Lin^neg cell samples from CD45.2 mice were stained for SKL and each of the EP receptors and surface receptor expression on KL and SKL cells determined by FACS. For human EP receptors, UCB was obtained from Wishard Hospital, Indianapolis, Ind. with Institutional Review Board approval. Mononuclear cells were isolated on Ficoll-Paque™ Plus (Amersham Biosciences) and CD34^+ cells positively selected with MACS microbeads (Miltenyi Biotech) (Fukuda and Pelus, 2001). Replicate cells were stained for CD34 and each of the EP receptors and surface expression determined by FACS. […] Cells were stained for SKL (murine cells) and CXCR4, Survivin, and/or active caspase-3, as described above, and analyzed by FACS.
To evaluate CXCR4, Lineage^neg mouse bone marrow cells or CD34^+ UCB were treated on ice with either 1 microMolar dmPGE2 or vehicle control for 2 hours, washed, and then cultured in RPMI-1640/10% HI-FBS at 37° C. for 24 hours, stained for SKL (murine cells) or CD34 (human) and CXCR4 and analyzed by FACS. […] Data are expressed as Mean±SEM % change in mean fluorescence intensity (MFI) of CXCR4 due to treatment with dmPGE2 or vehicle (n=3).

[2] = system: long-term repopulating HSPC; experiment: Limiting dilution competitive transplantation of ex vivo pulsed bone marrow; type: in vivo, mouse
Description: WBM cells (CD45.2) were treated on ice for 2 hours with either 1 microMolar dmPGE2 (Cayman Chemical, Ann Arbor, Mich.) per 1×10^6 cells or 0.01% ETOH in sterile, non-pyrogenic PBS. After incubation, cells were washed twice and mixed with 2×10^5 congenic CD45.1 competitor marrow cells at ratios of 0.075:1, 0.25:1, 1:1, and 2.5:1 and transplanted into lethally irradiated CD45.1 mice (1100-cGy split dose) by tail-vein injection (5 mice per dilution). CD45.1 and CD45.2 cells in PB were determined monthly by flow cytometry. For head-to-head competitive transplants, WBM from CD45.1 mice and CD45.2 mice were treated with vehicle or dmPGE2 and mixed with 2×10^5 competitor marrow cells from CD45.1/CD45.2 mice at ratios of 0.075:1, 0.25:1, 1:1, and 2.5:1 and transplanted into lethally irradiated CD45.1/CD45.2 mice. The proportion of CD45.1, CD45.2, and CD45.1/CD45.2 cells in PB was determined monthly. HSPC frequency was quantitated by Poisson statistics using L-CALC software (Stem Cell Technologies, Vancouver BC, Canada) with <5% contribution to chimerism considered a negative recipient. Competitive repopulating units (CRU) were calculated as described (Harrison, 1980). For secondary transplants, 2×10^6 WBM from previously transplanted F1 Hybrid mice at the 1:1 ratio at 20 weeks post-transplant were injected into lethally irradiated F1 Hybrid mice in non-competitive fashion and PB chimerism and tri-lineage reconstitution evaluated monthly.
Referring now to FIG. 1A, bone marrow from CD45.1 or CD45.2 mice were treated with vehicle or dmPGE2 respectively. CD45.1/CD45.2 hybrid marrow cells were used as competitors. Limiting dilutions were transplanted into lethally irradiated (1100 cGys, split dose) CD45.1/CD45.2 hybrid mice and chimerism in PB analyzed for 20 weeks. A representative flow plot detecting each cell population is shown (bottom panel).
Referring now to FIG. 1B, frequency analysis (top) for vehicle (red) or dmPGE2 (blue) pulsed cells, determined by Poisson statistics, at 12 weeks; P0=85,560 (vehicle) and P0=23,911 (dmPGE2 treated). Chimerism in PB and CRU analysis is shown at 12 weeks (Mean±SEM). Data represent 2 pooled experiments, n=5 mice/group/expt., each assayed individually.
This model permits quantitative comparison of engraftment and competitiveness of HSPC from control and dmPGE2 treatment groups within the same animal (FIG. 1A), as well as endogenous repopulation of host cells.
For head-to-head competitive analysis, WBM from CD45.1 and CD45.2 mice were treated with vehicle or dmPGE2 and mixed with 2×10^5 competitor marrow cells from CD45.1/CD45.2 mice at various ratios and transplanted into lethally-irradiated CD45.1/CD45.2 mice. The proportion of CD45.1, CD45.2, and CD45.1/CD45.2 cells in PB was determined monthly. For secondary, tertiary and quaternary transplants, 2×10^6 WBM from previously transplanted CD45.1/CD45.2 mice at a 1:1 ratio were injected into lethally-irradiated CD45.1/CD45.2 mice in non-competitive fashion. The proportion of CD45.1, CD45.2, and CD45.1/CD45.2 cells in PB was determined monthly. […] Data for 20 week primary transplant were from 2 pooled experiments, n=5 mice/group/experiment, each assayed individually. Data for secondary, tertiary, and quaternary transplants were from n=5 mice/group, each assayed individually

[3] = system: CXCR4 on murine KL and SKL cells; experiment: CXCR4 surface expression by FACS after pulse exposure, murine cells; type: cell-based, mouse; conditions: for CXCR4 expression on KL and SKL cells: pulse-exposure of Lin neg cells, 24 hours
Text: Expression of EP receptors, CXCR4 and Survivin Replicate Lin^neg cell samples from CD45.2 mice were stained for SKL and each of the EP receptors and surface receptor expression on KL and SKL cells determined by FACS. For human EP receptors, UCB was obtained from Wishard Hospital, Indianapolis, Ind. with Institutional Review Board approval. Mononuclear cells were isolated on Ficoll-Paque™ Plus (Amersham Biosciences) and CD34^+ cells positively selected with MACS microbeads (Miltenyi Biotech) (Fukuda and Pelus, 2001). Replicate cells were stained for CD34 and each of the EP receptors and surface expression determined by FACS. To evaluate CXCR4, Survivin and active caspase-3, Lin^neg cells or CD34^+ UCB were treated on ice with either 1 microMolar dmPGE2 or vehicle control for 2 hours, washed, and then cultured in RPMI-1640+10% FBS at 37° C. for 24 hours. Cells were stained for SKL (murine cells) and CXCR4, Survivin, and/or active caspase-3, as described above, and analyzed by FACS.
To evaluate CXCR4, Lineage^neg mouse bone marrow cells or CD34^+ UCB were treated on ice with either 1 microMolar dmPGE2 or vehicle control for 2 hours, washed, and then cultured in RPMI-1640/10% HI-FBS at 37° C. for 24 hours, stained for SKL (murine cells) or CD34 (human) and CXCR4 and analyzed by FACS. Referring now to FIG. 4A, CXCR4 expression on murine KL and SKL cells and human CD34^+ UCB cells 24 hours after treatment with dmPGE2. Data are expressed as Mean±SEM % change in mean fluorescence intensity (MFI) of CXCR4 due to treatment with dmPGE2 or vehicle (n=3).

[4] = 12 weeks post-transplant, vs vehicle treated cells

Compound	increase in CXCR4 expression on CD34+ UCB ([1]; after PGE2 exposure) [%]	number of treated cells giving equivalent reconstitution vs control cells ([2]; frequency analysis, limiting dilution)	period over which enhanced engraftment / HSPC frequency was stable ([2]; primary transplant)	competitive advantage / increase in HSPC frequency of PGE2-pulsed HSPC ([2]; short-term ex vivo exposure, vs control cells, Poisson statistics and CRU) [fold]	increase in CXCR4 expression on SKL ([3]; after PGE2 exposure) [%]	CXCR4 expression on KL and SKL cells [3]	CXCR4 expression on CD34+ UCB cells ([1]; pulse exposure, 24 hours)	chimerism in peripheral blood [2, 4]	increase in HSPC frequency and competitive repopulating units (CRU) [2, 4] [fold]	reconstitution of B- and T-lymphoid and myeloid lineages in PB ([2]; 32 weeks post-transplant, vs untreated competitor or vehicle treated cells)	HSPC frequency analysis P0 (Poisson statistics) ([2]; at 12 weeks, pulsed cells)	chimerism in serial (secondary, tertiary, quaternary) transplants ([2]; no additional treatment before serial transplant)	increase in HSPC frequency ([2]; throughout 20 weeks of follow up post-transplant) [fold]
CCCCC[C@H](O)/C=C/[C@H]1[C@H](O)CC(=O)[C@@H]1C/C=C\CCCC(=O)O [PGE2, Prostaglandin E2]	17.3	one-fourth	28 weeks and > 20 weeks	4	26.8	increased							
CCCCC(C)(C)[C@H](O)/C=C/[C@H]1[C@H](O)CC(=O)[C@@H]1C/C=C\CCCC(=O)O [dmPGE2, 16,16-dimethyl prostaglandin E2]						increased CXCR4 expression	increased CXCR4 expression	increased chimerism	~4	no discernible differences	23,911	also seen in secondary transplants; also recorded: Increased chimerism	~4
